# According to US9399666B2, “Inhibiting interaction between the HIF-1ALPHA and p300/CBP with hydrogen bond surrogate-based helices” (New York University, priority 2008, dated 2016):
# Peptide text beside a SMILES is read from it.
# Assays:
# circular dichroism = conditions: 10 mM phosphate buffered saline (par. 0128, each peptide; pH given only for 22 and 25, Fig 6B), pH 7.4, ns °C
# p300 = p300 (Homo sapiens, UniProt Q09472); assay: Affinity for p300 by isothermal titration calorimetry; assay type: binding; conditions: for Affinity for p300 (in words): ITC
# Description: Helix αA of HIF-1α C-TAD, shown in FIG. 1A and FIG. 1C, is critical for the interaction between the CH1 domain and HIF-1α, because mutation of its residues or hydroxylation of Asn803 is known to disrupt this complex and inhibit HIF-1α mediated transcription (Freedman et al., “Structural Basis for Recruitment of CBP/p300 by Hypoxia-inducible Factor-1α,” Proc. Nat'l Acad. Sci. USA 99:5367-72 (2002); Dames et al., “Structural Basis for Hif-1α/CBP Recognition in the Cellular Hypoxic Response,” Proc. Nat'1 Acad. Sci. USA 99:5271-6 (2002). Development of HBS helices as potential inhibitors of VEGF transcription was begun by mimicking the aA helix region of HIF-1. This helix consists of eight residues, […] (SEQ ID NO: 111), and features three residues, Asp-Cys-Glu, critical for binding with p300/CBP. Several linear peptides and their HBS α-helix analogs were designed to gauge the potential of these molecules to inhibit VEGF transcription in cell culture. Each unconstrained peptide and HBS helix was synthesized using the procedures described in (Dimartino et al., “Solid-phase Synthesis of Hydrogen-bond Surrogate-derived α-Helices,” Org. Lett. 7:2389-92 (2005); Chapman & Arora, “Optimized Synthesis of Hydrogen-bond Surrogate Helices: Surprising Effects of Microwave Heating on the Activity of Grubbs Catalysts,” Org. Lett. 8:5825-8 (2006)). The percent helicity of each peptide was determined using circular dichroism spectroscopy in 10 mM phosphate buffered saline as described in (Wang et al., “Evaluation of Biologically Relevant Short α-Helices Stabilized by a Main-chain Hydrogen-bond Surrogate,” J. Am. Chem. Soc. 128:9248-56 (2006)). The affinity of each peptide for p300 was measured by isothermal titration calorimetry analysis (Wiseman et al., “Rapid Measurement of Binding Constants and Heats of Binding Using a New Titration calorimeter,” Anal. Biochem. 179:131-7 (1989); Freire et al., “Isothermal Titration calorimetry,” Anal. Chem. 62:A950-A959 (1990); Chervenak & Toone, “Calorimetric Analysis of the Binding of Lectins with Overlapping Carhohydrate-binding Ligand Specificities,” Biochemistry 34:5685-95 (1995); Aki et al., “Competitive Binding of Drugs to the Multiple Binding Sites on Human Serum Albumin. A calorimetric Study,” J Thermal Anal. calorim. 57:36170 (1999); Graziano et al., “Linkage of Proton Binding to the Thermal Unfolding of Sso7d from the Hyperthermophilic Archaebacterium Sulfolobus solfataricus,” Int'l J. Biol. Macromolecules 26:45-53 (1999); Pluschke & Mutz, “Use of Isothermal Titration calorimetry in the Development of Molecularly Defined Vaccines,” J Thermal Anal. calorim. 57:377-88 (1999); Corbell et al., “A Comparison of Biological and calorimetric Analyses of Multivalent Glycodendrimer Ligands for Concanavalin A,” Tetrahedron-Asymmetry 11:95-111 (2000)). The ability of each peptide to downregulate VEGF transcription in cell culture was evaluated by […] quantitative RT-PCR, as described above. The cytotoxicity of each peptide was determined by monitoring cellular growth and population doubling in the presence of individual peptides at 1μM concentration.
# [1] = Percent helicity by circular dichroism spectroscopy; assay type: physicochemical; conditions: for % Helicity: 10 mM phosphate buffered saline
# Description: Helix αA of HIF-1α C-TAD, shown in FIG. 1A and FIG. 1C, is critical for the interaction between the CH1 domain and HIF-1α, because mutation of its residues or hydroxylation of Asn803 is known to disrupt this complex and inhibit HIF-1α mediated transcription (Freedman et al., “Structural Basis for Recruitment of CBP/p300 by Hypoxia-inducible Factor-1α,” Proc. Nat'l Acad. Sci. USA 99:5367-72 (2002); Dames et al., “Structural Basis for Hif-1α/CBP Recognition in the Cellular Hypoxic Response,” Proc. Nat'1 Acad. Sci. USA 99:5271-6 (2002). Development of HBS helices as potential inhibitors of VEGF transcription was begun by mimicking the aA helix region of HIF-1. This helix consists of eight residues, […] (SEQ ID NO: 111), and features three residues, Asp-Cys-Glu, critical for binding with p300/CBP. Several linear peptides and their HBS α-helix analogs were designed to gauge the potential of these molecules to inhibit VEGF transcription in cell culture. Each unconstrained peptide and HBS helix was synthesized using the procedures described in (Dimartino et al., “Solid-phase Synthesis of Hydrogen-bond Surrogate-derived α-Helices,” Org. Lett. 7:2389-92 (2005); Chapman & Arora, “Optimized Synthesis of Hydrogen-bond Surrogate Helices: Surprising Effects of Microwave Heating on the Activity of Grubbs Catalysts,” Org. Lett. 8:5825-8 (2006)). The percent helicity of each peptide was determined using circular dichroism spectroscopy in 10 mM phosphate buffered saline as described in (Wang et al., “Evaluation of Biologically Relevant Short α-Helices Stabilized by a Main-chain Hydrogen-bond Surrogate,” J. Am. Chem. Soc. 128:9248-56 (2006)). The affinity of each peptide for p300 was measured by isothermal titration calorimetry analysis (Wiseman et al., “Rapid Measurement of Binding Constants and Heats of Binding Using a New Titration calorimeter,” Anal. Biochem. 179:131-7 (1989); Freire et al., “Isothermal Titration calorimetry,” Anal. Chem. 62:A950-A959 (1990); Chervenak & Toone, “Calorimetric Analysis of the Binding of Lectins with Overlapping Carhohydrate-binding Ligand Specificities,” Biochemistry 34:5685-95 (1995); Aki et al., “Competitive Binding of Drugs to the Multiple Binding Sites on Human Serum Albumin. A calorimetric Study,” J Thermal Anal. calorim. […] The ability of each peptide to downregulate VEGF transcription in cell culture was evaluated by […] quantitative RT-PCR, as described above. The cytotoxicity of each peptide was determined by monitoring cellular growth and population doubling in the presence of individual peptides at 1μM concentration.
# MDA-MB-231-HRE-Luc cells = assay type: cell-based; conditions: for % Transcription inhibition in cell culture (Luc): luciferase assay
# Protocol: MDA-MB-231-HRE-Luc cells were maintained in high glucose Dulbecco's Modified Eagle's Medium (“DMEM”) supplemented with 10% fetal bovine serum and 0.4 g/L Geneticin (G418 sulfate, RPI Corporation). Cells were plated in 24-well dishes (BD Falcon) at a density of […] using 1 mL of a 6.5×10^4 cell/mL suspension. […] Cells were incubated for 6 hours at 37° C. in a humidified atmosphere with 5% CO2. Hypoxia was induced by adding desferoxamine mesylate (DFO, Sigma) to a final concentration of 300 μM, and cells were incubated for an additional 18 hours. Whole cell lysates were isolated by washing the cells twice with ice cold PBS and then adding 150 μL of Cell Culture Lysis Reagent (“CCLR,” Promega). Lysate was collected, centrifuged at 13,000 rpm at 4° C., aliquoted, and stored at −80° C. Luciferase assays were conducted according to the manufacturer's instructions (Promega) using a Turner TD-20e Luminometer. Relative light intensity measurements were normalized by performing a Bradford assay to determine the protein content of the lysate used in the luciferase assay. Briefly, 50 μL of cell lysate/luciferase assay reagent mix was added to 200 μL of Bradford reagent and 750 μL of Millipore water in a 1.5 mL cuvette. Protein standards were created in the range of 1 μg/mL to 10 μg/mL with the appropriate amount of a 1 mg/mL BSA solution. Absorbance was measured at 595 nm using a DU-800 spectrophotometer. The experiments were carried out in triplicate with the error bars calculated as standard error of the mean.
# experimental animals = conditions: cited from earlier work
# [2] = system: VEGF transcription in HeLa cells; assay: VEGF gene expression by real-time qRT-PCR; assay type: cell-based; conditions: FIG. 7
# Description: Real-time qRT-PCR was used to determine the effect of HBS helices on the level of expression of VEGF and GLUT1 genes in HeLa and MCF-7 cells, both under normoxic and hypoxic conditions. For VEGF analysis, the forward primer 5′AGGCCAGCACATAGGAGAGA-3′ (SEQ ID NO: 105) and reverse primer 5′TTTCCCTTTCCTCGAACTGA-3′ (SEQ ID NO:106) were used to amplify a 104-bp fragment from the […] of the gene. For GLUT1 (SLC2A1) analysis, the following sequences were utilized to yield a product of 179 bp: forward sequence 5′-TAGAAACATGGTTTTGAAATGC-3′ (SEQ ID NO:107), reverse sequence 5′-GGTAACAGGGATCAAACAGATT-3′ (SEQ ID NO:108). The levels of expression of β-glucuronidase were used as endogenous controls, since they remain unchanged under experimental conditions. The forward primer 5′-CTCATTTGGAATTTTGCCGATT-3′ (SEQ ID NO:109) and reverse primer 5′-CCGAGTGAAGATCCCCTTTTTA-3′ (SEQ ID NO:110) were used for this gene. Temperature cycling and detection of the SYBR green emission were performed with an ABI 7300 real-time PCR instrument. Data were analyzed with ABI Sequence Detection System, version 1.2. Statistical analysis was performed with the data from six independent experiments. The experiment was performed with Applied Biosystems SYBR Green RT-PCR master mix.
# [3] = system: HIF-1α C-TAD and p300/CBP; conditions: literature (Kung et al. 2004); cited from earlier work
# p300, sequence (Q09472 whole entry, the tested form may be a part): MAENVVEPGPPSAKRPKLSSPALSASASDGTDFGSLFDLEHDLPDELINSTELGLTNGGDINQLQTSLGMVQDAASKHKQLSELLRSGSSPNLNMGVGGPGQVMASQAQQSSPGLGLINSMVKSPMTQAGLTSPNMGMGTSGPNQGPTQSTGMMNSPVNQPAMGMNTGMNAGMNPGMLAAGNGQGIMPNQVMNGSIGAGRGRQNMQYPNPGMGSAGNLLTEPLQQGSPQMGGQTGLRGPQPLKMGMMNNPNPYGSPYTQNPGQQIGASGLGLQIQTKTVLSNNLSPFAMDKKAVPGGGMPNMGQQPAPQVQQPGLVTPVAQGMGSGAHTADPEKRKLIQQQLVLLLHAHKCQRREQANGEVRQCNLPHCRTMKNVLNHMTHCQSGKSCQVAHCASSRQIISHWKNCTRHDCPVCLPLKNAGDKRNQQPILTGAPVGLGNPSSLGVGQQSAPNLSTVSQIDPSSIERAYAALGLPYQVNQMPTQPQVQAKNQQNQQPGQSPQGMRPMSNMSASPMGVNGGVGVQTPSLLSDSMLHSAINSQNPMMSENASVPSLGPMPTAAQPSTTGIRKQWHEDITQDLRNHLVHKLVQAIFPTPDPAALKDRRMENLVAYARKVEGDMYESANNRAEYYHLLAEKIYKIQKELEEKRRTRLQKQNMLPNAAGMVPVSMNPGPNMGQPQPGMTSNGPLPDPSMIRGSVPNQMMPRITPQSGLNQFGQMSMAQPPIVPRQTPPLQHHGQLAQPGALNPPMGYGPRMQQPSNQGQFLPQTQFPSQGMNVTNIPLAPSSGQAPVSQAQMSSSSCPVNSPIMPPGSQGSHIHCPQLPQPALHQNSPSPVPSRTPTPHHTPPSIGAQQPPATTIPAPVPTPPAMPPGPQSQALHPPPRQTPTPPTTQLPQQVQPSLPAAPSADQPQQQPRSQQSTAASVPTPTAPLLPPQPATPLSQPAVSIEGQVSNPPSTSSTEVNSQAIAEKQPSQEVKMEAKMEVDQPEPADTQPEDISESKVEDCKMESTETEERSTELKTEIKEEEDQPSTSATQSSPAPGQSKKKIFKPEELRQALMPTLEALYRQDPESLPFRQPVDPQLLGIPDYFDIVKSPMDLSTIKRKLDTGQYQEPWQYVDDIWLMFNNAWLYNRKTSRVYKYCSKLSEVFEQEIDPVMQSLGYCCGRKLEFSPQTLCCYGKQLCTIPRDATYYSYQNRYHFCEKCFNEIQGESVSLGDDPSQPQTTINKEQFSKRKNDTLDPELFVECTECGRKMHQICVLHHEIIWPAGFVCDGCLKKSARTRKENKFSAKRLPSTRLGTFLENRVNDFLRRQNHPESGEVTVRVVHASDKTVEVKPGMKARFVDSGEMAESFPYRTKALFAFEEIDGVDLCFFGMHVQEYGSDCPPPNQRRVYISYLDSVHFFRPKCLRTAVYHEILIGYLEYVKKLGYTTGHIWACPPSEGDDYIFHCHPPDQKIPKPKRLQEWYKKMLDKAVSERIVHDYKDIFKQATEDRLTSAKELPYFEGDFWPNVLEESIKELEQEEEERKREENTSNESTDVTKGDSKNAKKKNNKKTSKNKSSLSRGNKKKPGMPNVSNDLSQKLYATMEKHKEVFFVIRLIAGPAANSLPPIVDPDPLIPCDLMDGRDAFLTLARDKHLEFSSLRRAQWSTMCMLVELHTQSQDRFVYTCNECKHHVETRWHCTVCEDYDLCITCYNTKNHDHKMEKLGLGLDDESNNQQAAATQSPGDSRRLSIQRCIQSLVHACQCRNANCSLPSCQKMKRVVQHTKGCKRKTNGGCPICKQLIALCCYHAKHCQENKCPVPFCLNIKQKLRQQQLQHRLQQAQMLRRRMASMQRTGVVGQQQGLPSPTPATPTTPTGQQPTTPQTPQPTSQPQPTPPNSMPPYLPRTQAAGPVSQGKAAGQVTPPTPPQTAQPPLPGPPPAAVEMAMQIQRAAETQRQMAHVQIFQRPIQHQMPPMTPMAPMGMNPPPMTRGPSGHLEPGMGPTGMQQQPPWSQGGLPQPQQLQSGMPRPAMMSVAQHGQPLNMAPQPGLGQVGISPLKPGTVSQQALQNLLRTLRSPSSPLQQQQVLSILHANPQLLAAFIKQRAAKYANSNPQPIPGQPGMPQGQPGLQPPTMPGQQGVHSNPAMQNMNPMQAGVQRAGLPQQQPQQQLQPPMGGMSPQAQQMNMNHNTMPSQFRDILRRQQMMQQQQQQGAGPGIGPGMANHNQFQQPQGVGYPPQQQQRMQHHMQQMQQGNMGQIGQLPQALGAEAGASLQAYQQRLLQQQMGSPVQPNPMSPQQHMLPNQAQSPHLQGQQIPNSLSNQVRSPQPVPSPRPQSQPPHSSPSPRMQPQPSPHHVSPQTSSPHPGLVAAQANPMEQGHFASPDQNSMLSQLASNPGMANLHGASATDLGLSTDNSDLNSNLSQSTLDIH
Compound,helicity (circular dichroism) [%],Affinity for p300 (in words) (p300),% Helicity [1] [%],Inhibition of VEGF transcription in cell culture (in words) (MDA-MB-231-HRE-Luc cells),% Transcription inhibition in cell culture (Luc) (MDA-MB-231-HRE-Luc cells; 1 μM peptide) [%],Side effects in experimental animals (experimental animals),Inhibition of VEGF transcription in HeLa cells (in words) [2],Helical content (in words) [1],"% Transcription inhibition in cell culture (Luc & RT-PCR) (MDA-MB-231-HRE-Luc cells; luciferase assay and qRT-PCR, 1 μM peptide) [%]","Kd (p300; isothermal titration calorimetry, p300, read-out: Kd (ITC)) [nM]",Inhibition of interaction between HIF-1α C-TAD and p300/CBP [3],"% Transcription inhibition in cell culture (MDA-MB-231-HRE-Luc cells; 200 nM chetomin, qRT-PCR or luciferase, method not given) [%]"
CC(=O)N[C@H](C(=O)N[C@@H](C)C(=O)N[C@@H](Cc1ccc(O)cc1)C(=O)N[C@@H](CC(=O)O)C(=O)N[C@@H](CS)C(=O)N[C@@H](CCC(=O)O)C(=O)N[C@H](C(=O)N[C@@H](CC(N)=O)C(=O)N[C@@H](C)C(N)=O)C(C)C)[C@@H](C)O [Compound 24] (Ac-TAYDCEVNA-NH2),15,bound p300 with significant affinities,15,failed to inhibit VEGF transcription in cell culture,15 ± 5,,,,,,,
CC(=O)N[C@H](C(=O)N[C@@H](CO)C(=O)N[C@@H](Cc1ccc(O)cc1)C(=O)N[C@@H](CC(=O)O)C(=O)N[C@@H](CS)C(=O)N[C@@H](CCC(=O)O)C(=O)N[C@H](C(=O)N[C@@H](CC(N)=O)C(=O)N[C@@H](C)C(N)=O)C(C)C)[C@@H](C)O [Compound 23] (Ac-TSYDCEVNA-NH2),14,bound p300 with significant affinities,14,failed to inhibit VEGF transcription in cell culture,10 ± 5,,,,,,,
"CN1C(=O)[C@@]23C[C@]4([C@]56C[C@@]78SS[C@@](CO)(C(=O)N7[C@H]5Nc5ccccc56)N(C)C8=O)c5ccccc5N[C@@H]4N2C(=O)[C@]1(CO)SS3 [chaetocin 1, chaetocin]",,,,,,"induced coagulative necrosis, anemia, and leukocytosis",,,,,,
CC(=O)NCC(=O)N[C@H](C(=O)N[C@@H](C)C(=O)N[C@@H](C)C(=O)N[C@@H](CC(=O)O)C(=O)N[C@@H](CS)C(=O)N[C@@H](CCC(=O)O)C(=O)N[C@@H](Cc1ccc(O)cc1)C(=O)N[C@@H](CC(N)=O)C(=O)N[C@@H](C)C(=O)N[C@@H](CCCNC(=N)N)C(N)=O)[C@@H](C)O [Compound 25] (Ac-GTAADCEYNAR-NH2),15,,15,,,,negligible effect,appears to be unstructured,8 ± 3,,,
"CN1C(=O)[C@]2(Cc3cn([C@]45C[C@@]67SS[C@@](CO)(C(=O)N6[C@H]4Nc4ccccc45)N(C)C7=O)c4ccccc34)SS[C@@]1(CO)C(=O)N2C [Compound 26, chetomin, reference compound]",,,,more potent inhibitor of VEGF transcription than HBS helix 22,,"induced coagulative necrosis, anemia, and leukocytosis",,,,120,inhibit the interaction between HIF-1α C-TAD and p300/CBP,50 ± 5
